{"source": "patent US5053333A", "about": "“Protease” (M & D Research Co., Ltd., priority 1988, dated 1991)", "key": {"[1]": {"tested_on": "Benz-I (protease specific for basic amino acid residue)", "experiment": "Cleavage of peptides by Benz-I, HPLC and amino acid composition of fragments", "type": "biochemical, Kluyveromyces lactis IFO 1903", "experimental": "The composition of the employed reaction mixture and the examination conditions were as follows. Namely, 500 μl of a reaction mixture containing 25 μmol of tris hydrochloride buffer solution (pH 7.0), 0.25 μmol of CaCl2, 5 mg of Lubrol PX, 100 μg of NaN3, each peptide at various concentrations and Benz-I at various concentrations was allowed to react at 30° C. for 20 hours.\n50-μl portions of the reaction mixture were sampled after the reaction for 0 and 20 hours and 50 μl of a reaction terminating agent comprising 0.2% of TFA and 10 mM of EDTA was added thereto. The resulting mixture was analyzed by HPLC. The HPLC was conducted by CH3 CN gradient elution with the use of an Ultron NC18 column (0.45×15 cm) or a TSK gel ODS-80TM column (0.46×25 cm) in the presence of 0.1% of TFA.\nThe residual reaction mixture was chromatographed under the same conditions as those employed in the above analysis and main peaks were fractionated. The fractionated eluate was evaporated to dryness on a centrifugal evaporator and decomposed with hydrochloric acid at 110° C. for 24 hours. Then each fragment was assumed from the amino acid composition."}, "protease A": {"tested_on": "protease A", "experiment": "Activation and inhibition of protease A (stated properties)", "type": "biochemical, Sporobolomyces odrus IFO 1597", "experimental": "The enzymes was incubated in the absence of any substrate in standard reaction mixtures containing various inhibitors at 25° C. for 30 minutes. After adding the substrate, the residual activity of each enzyme was determined.\nThe enzyme was reacted in the standard reaction mixture while varying the type and concentration of surfactants.\nThe activity of the enzyme was determined in the presence of 0.1% of EDTA while varying the concentration of CaCl2. […] The concentration of free CaCl2 was calculated from the apparent dissociation constant (K1) of EDTA for CaCl2 (log K1 =7.3)."}, "[2]": {"tested_on": "Benz-I (protease specific for basic amino acid residue)", "type": "biochemical, Kluyveromyces lactis IFO 1903", "experimental": "Benz-I was incubated in the presence of 10 mM of EDTA at 4° C. for one hour. When the enzyme was completely inactivated, the culture was dialyzed against 10 mM tris hydrochloride buffer solution (pH 7.0) containing 0.2% of Lubrol PX to thereby completely remove the EDTA. The enzyme mixture thus dialyzed was examined with respect to the recovery of the activity in reaction mixtures containing 0.5 mM of various metal ions."}, "protease B": {"tested_on": "protease B", "experiment": "Activation and inhibition of protease B (stated properties)", "type": "biochemical, Kluyveromyces lactis IFO 1903"}, "[3]": {"tested_on": "protease specific for basic amino acid residue from Sporobolomyces odrus IFO 1597", "type": "biochemical", "experimental": "The enzyme was treated in the standard reaction mixture containing 1 mM of EDTA and free from any substrate at 25° C. for 30 minutes. Various metal ions were added thereto each in such an amount as to give a concentration of 1.5 mM and the mixture was incubated at 30° C. for five minutes. Then the activity of each case was determined."}, "[4]": {"tested_on": "protease specific for basic amino acid residue from Sporobolomyces odrus IFO 1597", "experiment": "Behavior of Sporobolomyces protease against various inhibitors (residual activity)", "type": "biochemical", "details": "pH 7, 30 min, 1000 µM"}, "[5]": {"details": "200 mU Benz-I, 50 nmol peptide, 30° C., 20 hours"}, "[6]": {"details": "Benz-I treated with 10 mM EDTA, dialyzed, reaction mixture with 0.5 mM metal ion, control lot = 100"}, "[7]": {"details": "EDTA treatment +, reaction system EDTA (1 mM) +, metal 1.5 mM, 30° C. five minutes"}}, "note": "Entries after “also recorded” stand apart in the source; their conditions may differ. Like-named read-outs stand apart in the source and are kept apart here. Square brackets hold non-standard residues; d marks the D form. Ends that are not written are not given here. Peptide text beside a SMILES is read from it. pGlu = O=C1CC[C@@H](C(=O)O)N1", "data": [{"compound": "CC[C@H](C)[C@H](NC(=O)[C@H](Cc1c[nH]c2ccccc12)NC(=O)[C@@H]1CCCN1C(=O)[C@H](CCCNC(=N)N)NC(=O)[C@H](CCCCN)NC(=O)CNC(=O)[C@@H]1CCC(=O)N1)C(=O)N[C@@H](CC(C)C)C(=O)O", "note": "[Xenopsin] ([pGlu]GKRPWIL-OH)", "values": [{"measurement": "Fragment obtained (assumed from amino acid composition) after reaction with Benz-I", "setting": "[1]; [5]", "result": "pGlu-Gly-Lys-Arg"}]}, {"compound": "[Ca+2].[Cl-].[Cl-]", "note": "[calcium chloride]", "values": [{"measurement": "activation of protease A", "setting": "protease A; statement in words", "result": "best activated"}, {"measurement": "Relative activity", "setting": "[2]; [6]", "result": 93.1, "unit": "%"}, {"measurement": "activation of protease B", "setting": "protease B; statement in words", "result": "activated"}, {"measurement": "Relative activity", "setting": "[3]; [7]", "result": 107, "unit": "%"}]}, {"compound": "[Cl][Co][Cl]", "note": "[cobalt chloride]", "values": [{"measurement": "Relative activity", "setting": "[2]; [6]", "result": 21.1, "unit": "%"}, {"measurement": "Relative activity", "setting": "[3]; [7]", "result": 57, "unit": "%"}]}, {"compound": "O=C(O)CN(CCN(CC(=O)O)CC(=O)O)CC(=O)O", "note": "[ethylenediaminetetraacetic acid]", "values": [{"measurement": "inhibition of protease A", "setting": "protease A", "result": "inhibited"}, {"measurement": "Relative activity", "setting": "[2]", "result": 0.36, "unit": "%"}, {"measurement": "Relative activity", "setting": "[2]; 10000 µM", "result": 0.09, "unit": "%"}, {"measurement": "inhibition of protease B", "setting": "protease B", "result": "inhibited"}, {"measurement": "relative activity (residual)", "setting": "[4]", "result": 2, "unit": "%"}, {"measurement": "Relative activity", "setting": "[3]", "result": 3, "unit": "%"}, {"measurement": "Relative activity", "setting": "[3]; pH 7, 1000 µM", "result": 0, "unit": "%"}]}, {"compound": "[Cl-].[Cl-].[Mg+2]", "note": "[magnesium chloride]", "values": [{"measurement": "Relative activity", "setting": "[2]; [6]", "result": 43.6, "unit": "%"}, {"measurement": "Relative activity", "setting": "[3]; [7]", "result": 12, "unit": "%"}]}, {"compound": "[Cl][Mn][Cl]", "note": "[manganese chloride]", "values": [{"measurement": "Relative activity", "setting": "[2]; [6]", "result": 33.9, "unit": "%"}, {"measurement": "Relative activity", "setting": "[3]; [7]", "result": 53, "unit": "%"}]}, {"compound": "[Cl][Ni][Cl]", "note": "[nickel chloride]", "values": [{"measurement": "Relative activity", "setting": "[2]; [6]", "result": 16.1, "unit": "%"}, {"measurement": "Relative activity", "setting": "[3]; [7]", "result": 58, "unit": "%"}]}, {"compound": "RKRSRKE [protein kinase-related peptide]", "values": [{"measurement": "Fragment obtained (assumed from amino acid composition) after reaction with Benz-I", "setting": "[1]; [5]", "result": "Ser-Arg-Lys-Glu"}]}, {"compound": "Tyr-Gly-Gly-Phe-Leu-Arg-Arg-Ile-Arg-Pro-Lys-Leu-Lys (YGGFLRRIRPKLK; printed: Tyr-Gly-Gly-Phe-Leu-Arg-Arg-Ile-Arg-Pro-Lys-Leu-Lys) [Dynorphin A (1-13)]", "values": [{"measurement": "Fragment obtained (assumed from amino acid composition) after reaction with Benz-I", "setting": "[1]", "result": "Ile-Arg-Pro-Lys-Leu-Lys; also recorded: Try-Gly-Gly-Phe-Leu-Arg-Arg"}]}, {"compound": "YGGFMRRVGRPEWWMDYQKRYGGFL [3200-dalton Adrenal Peptide E]", "values": [{"measurement": "Fragment obtained (assumed from amino acid composition) after reaction with Benz-I", "setting": "[1]", "result": "^1 Tyr-Gly-Gly-Phe-Met-Arg-^7 Arg; also recorded: ^21 Tyr-Gly-Gly-Phe-^25 Leu"}]}, {"compound": "YGGFMRRVRPE [BAM-12P]", "values": [{"measurement": "Fragment obtained (assumed from amino acid composition) after reaction with Benz-I", "setting": "[1]", "result": "Val-Gly-Arg-Pro-Glu"}]}]}
